# Assay: Solubility experiment in cyclohexanone
# Assay type: physicochemical
# Settings: normal temperature/pressure, whether 0.1 wt % or more was dissolved
# Protocol: In order to confirm the solubility in the solvent used in the solution process of the compounds prepared in the Preparation Examples and the comparative compounds, each of them was dissolved in the solvent cyclohexanone (CHON) under normal temperature/pressure conditions, and it was confirmed whether 0.1 wt % or more was dissolved.
row,Compound,"Solubility, Solvent CHON"
1,c1ccc(N(c2ccc3cc(-c4cc5ccccc5o4)ccc3c2)c2ccc3c(ccc4c5ccc6c7ccc8cc(N(c9ccccc9)c9ccc%10cc(-c%11cc%12ccccc%12o%11)ccc%10c9)ccc8c7n(-c7ccccc7)c6c5n(-c5ccccc5)c34)c2)cc1 [Compound 15],◯ (0.1 wt. % or more soluble)
2,c1ccc(N(c2ccc3cc(-c4cc5ccccc5o4)ccc3c2)c2ccc3c(ccc4c5c(ccc6c7ccc8cc(N(c9ccccc9)c9ccc%10cc(-c%11cc%12ccccc%12o%11)ccc%10c9)ccc8c7n(-c7ccccc7)c65)n(-c5ccccc5)c34)c2)cc1 [Compound 11],◯ (0.1 wt. % or more soluble)
3,c1ccc(N(c2ccc3cc(-c4cc5ccccc5o4)ccc3c2)c2ccc3c(ccc4c5cc6c(cc5n(-c5ccccc5)c34)c3ccc4cc(N(c5ccccc5)c5ccc7cc(-c8cc9ccccc9o8)ccc7c5)ccc4c3n6-c3ccccc3)c2)cc1 [Compound 13],◯ (0.1 wt. % or more soluble)
4,Cc1cccc(N(c2ccc3c(ccc4c5ccc6c7ccc8cc(N(c9cccc(C)c9)c9cccc%10c9oc9ccccc9%10)ccc8c7n(-c7ccccc7)c6c5n(-c5ccccc5)c34)c2)c2cccc3c2oc2ccccc23)c1 [Compound 5],◯ (0.1 wt. % or more soluble)
5,c1ccc(-n2c3ccccc3c3cc(-c4ccc(N(c5ccc6ccccc6c5)c5ccc6c(ccc7c8cc9c(cc8n(-c8ccccc8)c67)c6ccc7cc(N(c8ccc(-c%10ccc%11c(c%10)c%10ccccc%10n%11-c%10ccccc%10)cc8)c8ccc%10ccccc%10c8)ccc7c6n9-c6ccccc6)c5)cc4)ccc32)cc1 [Compound 8],◯ (0.1 wt. % or more soluble)
6,CC(C)(C)c1ccc(N(c2ccc3cc(-c4cc5ccccc5o4)ccc3c2)c2ccc3c(ccc4c5cc6c(cc5n(-c5ccc(C(C)(C)C)cc5)c34)c3ccc4cc(N(c5ccc(C(C)(C)C)cc5)c5ccc7cc(-c8cc9ccccc9o8)ccc7c5)ccc4c3n6-c3ccc(C(C)(C)C)cc3)c2)cc1 [Compound 18],◯ (0.1 wt. % or more soluble)
7,Cc1cccc(N(c2ccc3c(ccc4c5cc6c7ccc8cc(N(c9cccc(C)c9)c9cccc%10c9oc9ccccc9%10)ccc8c7n(-c7ccccc7)c6cc5n(-c5ccccc5)c34)c2)c2cccc3c2oc2ccccc23)c1 [Compound 2],◯ (0.1 wt. % or more soluble)
8,Cc1cccc(N(c2ccc3c(ccc4c5c6c7ccc8cc(N(c9cccc(C)c9)c9cccc%10c9oc9ccccc9%10)ccc8c7n(-c7ccccc7)c6ccc5n(-c5ccccc5)c34)c2)c2cccc3c2oc2ccccc23)c1 [Compound 4],◯ (0.1 wt. % or more soluble)

# The remaining lines, values ahead:
row,"Solubility, Solvent CHON",Compound
1,◯ (0.1 wt. % or more soluble),c1ccc(N(c2ccc3cc(-c4cc5ccccc5o4)ccc3c2)c2ccc3c(ccc4c5c6c7ccc8cc(N(c9ccccc9)c9ccc%10cc(-c%11cc%12ccccc%12o%11)ccc%10c9)ccc8c7n(-c7ccccc7)c6ccc5n(-c5ccccc5)c34)c2)cc1 [Compound 14]
2,◯ (0.1 wt. % or more soluble),c1ccc(-n2c3ccccc3c3cc(-c4ccc(N(c5ccc6ccccc6c5)c5ccc6c(ccc7c8ccc9c%10ccc%11cc(N(c%12ccc(-c%13ccc%14c(c%13)c%13ccccc%13n%14-c%13ccccc%13)cc%12)c%12ccc%13ccccc%13c%12)ccc%11c%10n(-c%10ccccc%10)c9c8n(-c8ccccc8)c67)c5)cc4)ccc32)cc1 [Compound 10]
3,◯ (0.1 wt. % or more soluble),[2H]c1c([2H])c([2H])c(-n2c3cc4c5ccc6cc(N(c7ccccc7)c7ccc8cc(-c9cc%10ccccc%10o9)ccc8c7)ccc6c5n(-c5c([2H])c([2H])c([2H])c([2H])c5[2H])c4cc3c3ccc4cc(N(c5ccccc5)c5ccc6cc(-c7cc8ccccc8o7)ccc6c5)ccc4c32)c([2H])c1[2H] [Compound 17]
4,◯ (0.1 wt. % or more soluble),c1ccc(-n2c3ccccc3c3cc(-c4ccc(N(c5ccc6ccccc6c5)c5ccc6c(ccc7c8c(ccc9c%10ccc%11cc(N(c%12ccc(-c%13ccc%14c(c%13)c%13ccccc%13n%14-c%13ccccc%13)cc%12)c%12ccc%13ccccc%13c%12)ccc%11c%10n(-c%10ccccc%10)c98)n(-c8ccccc8)c67)c5)cc4)ccc32)cc1 [Compound 6]
5,◯ (0.1 wt. % or more soluble),c1ccc(-n2c3ccccc3c3cc(-c4ccc(N(c5ccc6ccccc6c5)c5ccc6c(ccc7c8cc9c%10ccc%11cc(N(c%12ccc(-c%13ccc%14c(c%13)c%13ccccc%13n%14-c%13ccccc%13)cc%12)c%12ccc%13ccccc%13c%12)ccc%11c%10n(-c%10ccccc%10)c9cc8n(-c8ccccc8)c67)c5)cc4)ccc32)cc1 [Compound 7]
6,◯ (0.1 wt. % or more soluble),Cc1cccc(N(c2ccc3c(ccc4c5cc6c(cc5n(-c5ccccc5)c34)c3ccc4cc(N(c5cccc(C)c5)c5cccc7c5oc5ccccc57)ccc4c3n6-c3ccccc3)c2)c2cccc3c2oc2ccccc23)c1 [Compound 3]
7,◯ (0.1 wt. % or more soluble),c1ccc(-n2c3ccccc3c3cc(-c4ccc(N(c5ccc6ccccc6c5)c5ccc6c(ccc7c8c9c%10ccc%11cc(N(c%12ccc(-c%13ccc%14c(c%13)c%13ccccc%13n%14-c%13ccccc%13)cc%12)c%12ccc%13ccccc%13c%12)ccc%11c%10n(-c%10ccccc%10)c9ccc8n(-c8ccccc8)c67)c5)cc4)ccc32)cc1 [Compound 9]
8,X (0.1 wt. % or more insoluble),"CC1(C)c2cc(-c3cc4ccccc4o3)ccc2-c2ccc(N(c3ccccc3)c3ccc4c5c6ccc7c(c6ccc5n(-c5ccccc5)c4c3)c3ccc(N(c4ccccc4)c4ccc5c(c4)C(C)(C)c4cc(-c6cc8ccccc8o6)ccc4-5)cc3n7-c3ccccc3)cc21 [Comparative Compound I, reference compound]"
9,◯ (0.1 wt. % or more soluble),c1ccc(N(c2ccc3cc(-c4cc5ccccc5o4)ccc3c2)c2ccc3c(ccc4c5cc6c7ccc8cc(N(c9ccccc9)c9ccc%10cc(-c%11cc%12ccccc%12o%11)ccc%10c9)ccc8c7n(-c7ccccc7)c6cc5n(-c5ccccc5)c34)c2)cc1 [Compound 12]
10,◯ (0.1 wt. % or more soluble),CC1(C)c2ccccc2-c2ccc(-n3c4cc5c6ccc7cc(N(c8ccccc8)c8ccc9cc(-c%10cc%11ccccc%11o%10)ccc9c8)ccc7c6n(-c6ccc7c(c6)C(C)(C)c6ccccc6-7)c5cc4c4ccc5cc(N(c6ccccc6)c6ccc7cc(-c8cc9ccccc9o8)ccc7c6)ccc5c43)cc21 [Compound 16]
11,◯ (0.1 wt. % or more soluble),Cc1cccc(N(c2ccc3c(ccc4c5c(ccc6c7ccc8cc(N(c9cccc(C)c9)c9cccc%10c9oc9ccccc9%10)ccc8c7n(-c7ccccc7)c65)n(-c5ccccc5)c34)c2)c2cccc3c2oc2ccccc23)c1 [Compound 1]

# Reference: US12538701B2, “Compound and organic light emitting device comprising the same” (LG Chem, Ltd., priority 2020, dated 2026)
